In US12085575B2, “Compositions and methods for detecting proteinopathies” (BOARD OF SUPERVISORS OF LOUISIANA STATE UNIVERSITY AND …, priority 2011, dated 2024):
Residues, ends and D or L forms follow the SMILES beside them. *: point of attachment. Cbz = O=C(OCc1ccccc1)*

System: Mfn2
Experiment: Mfn2 modification and degradation in A-T/LV shRNA cells treated with mitochondrial depolarizing agents
Assay type: cell-based, human
Details: ISG15-silenced A-T cells; CCCP 25 uM with MG132 or Bafl 100 nM, 24 hr
Protocol: Immunoblotting Analysis of Mitochondrial Proteins—Mitochondria were isolated from A-T/LV control and ISG15 shRNA cells using the Miochondrial Isolation Kit (Thermo Scientific Company, 89874). The Dounce homogenization protocol described by the manufacturer was used to isolate mitochondria from cells. Mitochondrial pellets were resuspended in lysis buffer containing 50 mM Tris pH 7.5 and 4% (v/v) SDS. Samples were homogenized and boiled for 10 min. Lysates containing equal protein were then mixed with 6× Laemmli SDS sample buffer (3× final concentration). Samples were boiled again and mitochondrial proteins were analyzed by SDS-PAGE. Immunoblotting analyses using either anti-ISG15 (raised against human ISG15) (20), anti-ubiquitin (gift from Dr. Arthur Haas, at LSUHSC—New Orleans), or anti-mitofusin 2 (Abcam, ab88569) antibodies were carried out using the ECL Western procedure (Pierce, 34076) and the BioRad VersaDoc Imaging System (BioRad). Immunoblotting Analysis of HA Polyubiquitylated Proteins in Cells: Cells were transfected with HA-ubiquitin using the PolyFect transfection reagent (Qiagen, 301105). Twenty four hours after transfection, mitochondria were isolated as described above. Mitochondrial lysis, SDS-PAGE, and immunoblotting analysis to detect HA-ubiquitin conjugated proteins using anti-HA antibodies were carried out as described above. Immunoblotting Analysis of Mfn2 in Cells: Cells were lysed in lysis buffer containing 50 mM Tris-HCl, pH 7.5, 2% SDS, and protease inhibitor cocktail. Lysates were sonicated, boiled, and cleared by centrifugation. Lysates containing equal protein were then mixed with 6× Laemmli SDS sample buffer (3× final concentration). Samples were boiled again and proteins were separated by 15% SDS-PAGE. Immunoblotting analysis was carried out using anti-Mfn2 antibodies (Abcam) as described above. Intensity of the Mfn2 bands was quantitated using BioRad Quantity One software. Statistical analysis—Statistical analysis was carried out using GraphPad software.
Many outer mitochondrial membrane (OMM) proteins are ubiquitylated and degraded via the 26S proteasome prior to mitophagy in cells treated with the mitochondrial depolarizing agents (28,29). To test whether ISG15 inhibits polyubiquitylation of OMM proteins, we assessed the fate of Mfn2, an OMM protein and proteasome substrate, in A-T/LV-control and A-T/LV-ISG15-silenced cells treated with two different mitochondrial depolarizing agents, valinomycin and carbonylcyanide m-chlorophenylhydrazone (CCCP). Consistent with the literature reports (29,35,36), we observed a ladder of high molecular weight anti-Mfn2 cross-reactive bands above the 86 kDa Mfn2 protein band that is reminiscent of polyubiquitylation, in both ISG15-silenced and ISG15 overexpressing A-T cells (FIGS. 34 A and B, left panels). The endogenous level of these high molecular weight Mfn2 cross-reactive bands was remarkably higher in ISG15-silenced as compared to the ISG15-overexpressing A-T cells in the absence of any drugs (FIGS. 34A and B, first panels, compare lanes 1 and 4). […] In contrast, the level of these Mfn2 cross-reactive high molecular weight bands decreased under the same drug treatment conditions in ISG15-silenced A-T cells (FIGS. 34A and B, first panels, lanes 4-6, and the accompanying bar graph in the second panel for quantitation). […] The bar graphs in FIGS. 34A and B, third panels, show mean values of the ratio between free Mfn2 (86 kDa band) and actin proteins (±SEM) in CCCP-treated A-T/LV-control and ISG15 shRNA cells measured from eight independent experiments, and valinomycin-treated A-T/LV-control and ISG15 shRNA cells measured from three independent experiments respectively.

`CO/C1=C\C(C)=C\[C@@H](C)[C@@H](O)[C@@H](C)C/C(C)=C/C=C/[C@H](OC)[C@@H]([C@@H](C)[C@@H](O)[C@H](C)[C@@]2(O)C[C@@H](O)[C@H](C)[C@@H](C(C)C)O2)OC1=O` [Bafilomycin A1] was tested, and the “free Mfn2 degradation in CCCP-treated cells” value was “not”.

`CC(C)C[C@@H](C=O)NC(=O)[C@H](CC(C)C)NC(=O)[C@H](CC(C)C)NC(=O)OCc1ccccc1` [MG132] (Cbz-Leu-Leu-Leu-aldehyde) was tested, and the “free Mfn2 degradation in CCCP-treated cells” value was “restored”.
